{
  "source": "paper PMC11392399",
  "about": "“The final walk with preptin” (PLOS ONE, 2024)",
  "key": {"[1]": {"system": "intracellular calcium in U-2 OS osteoblasts", "assay": "Changes in intracellular calcium, U-2 OS osteoblasts", "type": "cell-based, human", "conditions": "U-2 OS cells; 10^−4 M; Fluo-8 fluorescence, (Fmax−F0)/F0; one-way ANOVA", "protocol": "The day before the experiment, U-2 OS, MC3T3-E1, MIN6 and cAMP-HEK cells were seeded 6 000 (for osteoblastic cell lines U-2 OS, MC3T3-E1), 10 000 (for cAMP-HEK cells) or 30 000 (MIN6) cells per well in a black 384-well format micro plate with transparent bottom (Cat.#: 142761, Nunc, Thermo Fisher Scientific, USA). On the next day, the cultivation media was exchanged for assay buffer, consisting of HBSS (Cat.#: H6648-500ML, Sigma-Aldrich, Merck, Germany), 20 mM HEPES (Cat.#: L0180-100, Biowest, France), 2.5 mM Probenecid (Cat.#: P8761, Sigma-Aldrich, Merck, Germany), adjusted for pH 7.4 and supplemented with 4.77 μM CalciFluor™ Fluo-8, AM (Cat.#: 1345980-40-6, Santa Cruz Biotechnology, USA). After 45 min incubation with assay buffer in 37°C and 5% CO2, the cells were incubated at RT in a dark place for another 15 minutes. After this time, preptin and its analogs were added by the Agilent Bravo Automated Liquid Handling Platform (Agilent Technologies, USA). The kinetics were measured by the Spark® multimode reader from Tecan (Tecan Group Ltd., Switzerland) for 10 min (approximately 45 cycles, excitation 485 nm, emission 535 nm, band width 10 nm). Before each kinetics, the background fluorescence (F0) was measured and the result was calculated as (Fmax−F0)/F0, where Fmax corresponds to the maximum response upon stimulation by the compounds. Each compound was tested in concentration 10^−4 M."}, "[2]": {"system": "mouse β-cell line βTC6-F7", "conditions": "permanent mouse β-cell line βTC6-F7; ref [8] Buchanan et al.; cited from earlier work", "from_the_text": "Cheng et al. observed an increase in insulin secretion at a glucose concentration of 25 mmol/l and Buchanan et al. used 10 mmol/l."}, "[3]": {"system": "MIN6 pancreatic beta cells", "assay": "Stimulation of insulin secretion, radioimmunoassay", "type": "cell-based, mouse", "conditions": "basal glucose 10 mmol/l, various, very high concentrations of preptin, 1 h at 37°C, RIA", "protocol": "MIN6 cells were seeded at a density of 100 000 cells/well in 24-well culture dishes and grown for 3 days in 1 ml of complete medium. Before experiments, cells were maintained for 2 h in a glucose-free medium. Thereafter, the cells were washed twice and preincubated for 2 h at 37°C in 0.4 ml glucose-free Krebs-Ringer bicarbonate HEPES (KRBH) buffer of the following composition: 120 mM NaCl, 4.6 mM KCl, 2 mM CaCl2, 5 mM NaHCO3, 1 mM MgSO4, 0.4 mM KH2PO4, 0.15 mM Na2HPO4, BSA (0.2 % w/v), and 20 mM HEPES with pH value adjusted to 7.4 with NaOH. Next, the buffer was removed from cells and a new portion of 0.4 ml of glucose-free KRBH buffer, but with a respective concentration of glucose and/or preptin, was added to the cells, which were incubated for 1 h at 37°C. The cells were stimulated with various concentrations of D-glucose (0 and 10 mM) and the effects of various concentrations of mouse preptin were determined for 10 mM D-glucose concentration. After the stimulation, supernatants were collected from the cells and stored at −80°C before the measurement of insulin concentration.\nRadioimmunoassay (RIA) kits for the measurement of rat insulin (sensitive Rat Insulin RIA Kit, Cat. # SRI-13K) content in samples were provided by EMD Millipore Corporation and were used according to the manufacturer’s instructions. Each biological sample was measured in duplicate."}, "hBMSC-TERT [4]": {"system": "hBMSC-TERT", "assay": "Osteoblast differentiation of hBMSC-TERT, alkaline phosphatase (ALP) activity assay", "type": "cell-based, human", "conditions": "summary in the conclusions", "protocol": "(§1) hBMSC-TERT were plated at a density of 20 000 cells/cm^2 (Alizarin Red S staining) and 5 000 cells/well (ALP activity assay) in MEM medium (Gibco), supplemented with 10 % FBS (Gibco) and 1 % P/S (Gibco). One day after seeding, the medium was replaced with OB induction medium, composed of basal medium, supplemented with 10 mM B-glycerophosphate (Sigma-Aldrich), 10 nM dexamethasone (Sigma-Aldrich), 50 μg/mL vitamin C (Sigma-Aldrich), 10 nM vitamin D3 (Sigma-Aldrich) and treated with 100 ng/ml, 500 ng/ml and 1 ug/ml IGF2, IGF1, IGF2, preptin or vehicle (acetic acid) as a control. The medium was changed every other day for 7 days (ALP activity assay) or 10 days (Alizarin Red S staining).\nALP activity and cell viability assay were quantified at Day 7 of OB differentiation, in order to normalize the ALP activity data to the number of viable cells.\nCell viability assay was measured using a Cell Titer-Blue Assay Reagent (Promega) at fluorescence intensity (579Ex/584Em). ALP activity was detected by absorbance at 405 nm, using p-nitrophenyl phosphate (Sigma-Aldrich) as substrate."}, "hBMSC-TERT [5]": {"system": "hBMSC-TERT", "assay": "Osteoblast differentiation of hBMSC-TERT, Alizarin Red S staining", "type": "cell-based, human", "conditions": "increasing concentrations; day 10 of OB differentiation; compared to effects of IGF2 and preptin", "protocol": "as §1\nMineralized matrix formation at Day 10 of OB differentiation was measured, using Alizarin Red S staining. Cells were fixed with 70 % ice-cold ethanol for 1 h at -20°C, before addition of Alizarin Red S Solution (AR-S) (Sigma-Aldrich). The cells were stained for 10 min at room temperature (RT). Excess dye was washed with distilled water and with phosphate buffered saline (PBS) (Gibco) to reduce nonspecific AR-S stain."}, "[6]": {"system": "human primary osteoblasts", "conditions": "8 days, ref [17] Bosetti et al.; cited from earlier work"}},
  "data": [
    {"substance": "DVSTSQAVLPDDFPRYPVGKFFKFDTWRQSAGRL [peptide 19, native rat preptin]", "values": [
      {"measurement": "changes in intracellular calcium relative to non-stimulated cells", "setting": "[1]", "value": "significant increase in intracellular calcium levels"},
      {"measurement": "increase of insulin secretion", "setting": "[2]", "value": "able to increase insulin secretion"}
    ]},
    {"substance": "DVSTSQAVLPDDFPRYPVGKFFQYDTWRQSAGRL [peptide 14, native mouse preptin]", "values": [
      {"measurement": "stimulation of insulin secretion", "setting": "[3]", "value": "did not observe a significant increase in insulin secretion"}
    ]},
    {"substance": "IGF1: insulin-like growth factor 1, comparator hormone", "values": [
      {"measurement": "osteoblast differentiation of hBMSCs", "setting": "hBMSC-TERT [4]", "value": "only significant changes observed for IGF1"},
      {"measurement": "Alizarin S staining of calcified matrix", "setting": "hBMSC-TERT [5]", "value": "largest changes"},
      {"measurement": "change in ALP activity", "setting": "[6]", "value": "only significant change in ALP activity"}
    ]}
  ]
}
